According to ChEMBL document CHEMBL1201862, “PubChem BioAssay data set” (2004):
Activity calls are given as the source filed them.

How the values were obtained:
[1] = viability of PTEN-deleted HCT116 cells – cell-based, HCT116 PTEN knockout, dose response (AID 1047); format: functional;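 also: HCT116 colon tumor cells with PTEN knocked out; cells exposed to compound for 60 hours before readout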
CHO = CHO cell viability loss, potency – luminescence, cytotoxicity control for TLR9-MyD88 binding inhibitor project, dose response (AID 588339); format: functional, cell-based, hamster; details: Cricetulus griseus;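 also: CHO cells stably coexpressing TLR9 and MyD88 fusions from primary screen; compound exposure lasted 48 hours before viability readout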
[2] = viability of HCT116 lacking mutant beta-catenin – cell-based, human colon tumor, dose response (AID 1045); format: functional;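 also: HCT116 colon tumor cells with beta catenin knocked out; cells exposed to compound for 60 hours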
Beta Lactamase = Beta Lactamase (Pseudomonas aeruginosa, UniProt Q932Y6); test: BLA reporter interference, concentration series – BLA reporter cells, FRET fluorescence, artefact control for TLR9-MyD88 binding inhibitor project, dose response (AID 588341); format: cell-based;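 also: cell based assay in CHO-K1 cells stably expressing beta-lactamase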
Chain of Beta Lactamase (Q932Y6 whole entry): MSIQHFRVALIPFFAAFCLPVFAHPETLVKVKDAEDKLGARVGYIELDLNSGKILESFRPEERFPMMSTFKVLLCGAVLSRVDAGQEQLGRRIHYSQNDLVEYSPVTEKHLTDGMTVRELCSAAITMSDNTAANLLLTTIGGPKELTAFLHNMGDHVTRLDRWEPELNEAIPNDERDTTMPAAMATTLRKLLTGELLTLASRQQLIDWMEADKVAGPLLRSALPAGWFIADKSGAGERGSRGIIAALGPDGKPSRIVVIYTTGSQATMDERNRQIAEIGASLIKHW

DNA topoisomerase = DNA topoisomerase (Yersinia pestis, UniProt A0A2S9PM60); test: Yersinia topoisomerase I cleavage product accumulation – biochemical, cherry-pick, dose response (AID 588525)
Chain of DNA topoisomerase (A0A2S9PM60 whole entry): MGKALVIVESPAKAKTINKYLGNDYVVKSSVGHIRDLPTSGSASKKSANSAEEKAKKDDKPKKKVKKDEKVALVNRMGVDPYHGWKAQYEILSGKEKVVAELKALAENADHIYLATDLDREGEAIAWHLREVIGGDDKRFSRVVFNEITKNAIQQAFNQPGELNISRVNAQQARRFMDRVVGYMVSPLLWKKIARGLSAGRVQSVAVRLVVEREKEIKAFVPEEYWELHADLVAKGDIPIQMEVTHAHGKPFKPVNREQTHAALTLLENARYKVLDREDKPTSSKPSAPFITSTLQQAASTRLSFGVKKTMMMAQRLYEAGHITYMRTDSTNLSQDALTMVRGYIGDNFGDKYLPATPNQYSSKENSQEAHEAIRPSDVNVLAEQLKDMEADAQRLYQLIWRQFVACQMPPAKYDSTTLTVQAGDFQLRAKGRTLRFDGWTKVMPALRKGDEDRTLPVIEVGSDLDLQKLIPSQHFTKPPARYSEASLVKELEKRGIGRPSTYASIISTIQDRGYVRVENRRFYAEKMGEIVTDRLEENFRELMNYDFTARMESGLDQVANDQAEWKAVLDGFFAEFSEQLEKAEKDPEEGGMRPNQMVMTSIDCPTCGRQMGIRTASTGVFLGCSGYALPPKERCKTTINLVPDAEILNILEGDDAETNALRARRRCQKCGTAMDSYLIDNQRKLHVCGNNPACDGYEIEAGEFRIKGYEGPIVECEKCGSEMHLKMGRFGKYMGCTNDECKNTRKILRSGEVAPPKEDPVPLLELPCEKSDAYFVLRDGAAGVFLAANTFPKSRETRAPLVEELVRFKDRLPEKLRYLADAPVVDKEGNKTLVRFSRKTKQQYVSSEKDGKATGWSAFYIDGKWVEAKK

SMILES | EC50 [1] | IC50 (CHO) | EC50 [2] | IC50 (Beta Lactamase) | AC50 (DNA topoisomerase)
O=C(/C=C/c1cn(CC(O)CN2CCCCCC2)c2ccccc12)c1cccs1 (stereo unspecified) | 14.1 µM (active) | 20.1 µM (inactive) | 11.9 µM (active) | 8.35 µM (active) | 
CC(C)CN(C(=O)COC(=O)c1c2c(nc3ccccc13)CCC2)c1c(N)n(Cc2ccccc2)c(=O)[nH]c1=O |  |  |  |  | > 38 µM (inactive)
CC(C)C(=O)N1CCN(c2nc(-c3ccc(Cl)cc3)cs2)CC1 |  |  |  |  | 1.72 µM (active)
